# From publication PMC6081452, “Downstream Products are Potent Inhibitors of the Heparan Sulfate 2-O-Sulfotransferase” (Scientific Reports, 2018)
# Biological target: T1, non-glyc-HS2ST H142K (Gallus gallus, UniProt Q76KB1, H142K)
# T1 construct: made in house; host or cells: E. coli Origami B (DE3)
# T1 sequence (Q76KB1 69-356 H142K limits assumed): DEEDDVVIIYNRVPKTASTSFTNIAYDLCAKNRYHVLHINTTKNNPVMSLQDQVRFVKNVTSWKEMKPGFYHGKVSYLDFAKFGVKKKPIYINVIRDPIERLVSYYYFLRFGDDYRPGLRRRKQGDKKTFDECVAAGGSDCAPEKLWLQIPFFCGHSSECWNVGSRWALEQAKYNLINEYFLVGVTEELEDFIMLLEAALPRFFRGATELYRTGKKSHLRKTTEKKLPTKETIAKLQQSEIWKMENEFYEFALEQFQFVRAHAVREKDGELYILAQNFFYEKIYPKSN
# Experiment: BLI equilibrium binding, non-glyc-HS2ST H142K
# Parameters: species or system chicken
# Conditions: BLI saturation binding curves, n = 3, ± standard error of fit
# Excerpt: To assess whether the inhibitory compounds interact with the active site, point mutations were introduced in non-glyc-HS2ST (Fig. 4a). Four mutants of the catalytic residue (H142A/E/R/K) were created, along with a mutation of the residue that facilitates 2-O-sulfation of IdoA residues (R189A)[27]. Additionally, a negative control (NC) was generated containing multiple mutations of positively charged residues (R189A, R80E, and R184E) that reduced the net charge of each protein monomer by 5. The extent that the mutations affected affinity provided an indication that the ligand had been bound in the active site (Table 1 and Supplementary Fig. 1). While R189A markedly diminished the affinity for all compounds, the NC mutations reduced affinity to immeasurable levels. Removal of the catalytic side chain (H142A) enhanced the affinity of each compound, compared to the WT, by approximately 2–3-fold. Addition of a positive charge at this location (H142K/R) further enhanced the affinity for each compound, so much so that a KD value could be measured even for 2. The H142E mutation diminished the affinity of 5 by half compared to WT, but its effects were less significant for binding to 3 or 4.
# The chicken HS2ST-Maltose Binding Protein (MBP) fusion protein was expressed and purified according to previous studies. The fusion protein was transformed into E. coli Origami B (DE3) cells, cultured at 37 °C until OD600 reached 0.5, then induced with isopropyl-β-D-thiogalactopyranoside and allowed to grow overnight at 20 °C. Cells were sonicated, followed by a two-step purification procedure. Whole-cell supernatant was passed through an amylose column with Tris buffer (25 mM Tris, 500 mM NaCl, pH 7.5). An elution buffer consisted of Tris Buffer with 40 mM Maltose. The amylose column eluent was concentrated and loaded on a Superdex 200 Increase 10/300 GL with PBS buffer (10 mM sodium phosphate, 150 mM NaCl, pH 7.8) to separate trimeric protein from aggregate and independent MBP (Supplementary Fig. 4). All reported mutations formed homotrimeric complexes according to the SEC profiles, including the negative control (NC = R189A/R80E/R184E). Protein concentration was assessed via UV at 280 nm (MW of trimer ~210 KDa, extinction coefficient ~119,000 M^−1 cm^−1 according to ExPASy ProtParam webtool[56]). The trimeric protein preparation was adjusted to 5% glycerol and stored at −20 °C until use. Additional non-glyc-HS2ST constructs were created with the Q5® Mutagenesis kit (New England Biolabs Inc.; cat. # E0554S) and sequenced at the Georgia Genomics Facility at the University of Georgia.
# The Octet® RED96 system (FortéBio Inc.) was employed to detect the affinity of the enzymes for specific HS targets. […]
substance,measurement,value
GlcNS-GlcA-GlcNS-IdoA2S-GlcNS-GlcA~ [Compound 2],Kd,198 ± 34 nM
GlcNS6S-GlcA-GlcNS3S6S-IdoA2S-GlcNS6S-GlcA~ [Compound 4],Kd,11 ± 2 nM
GlcNS6S-GlcA-GlcNS6S-IdoA2S-GlcNS6S-GlcA~ [Compound 3],Kd,15 ± 2 nM
GlcNS6S-GlcA-GlcNS6S-GlcA-GlcNS6S-GlcA~ [Compound 5],Kd,22 ± 2 nM
